Results on one compound are retold here after patent US20230270805A1, “A COMPOSITION COMPRISING AN EXTRACT OF ALDER TREE OR THE ISOLATED COMPOUNDS THEREFROM FOR TREATING AND PREVENTING SKELETON MUSCLE-RELATED DISORDER AND THE USE THEREOF” (Sookmyung Women's University Indusutry-Academic Cooperation …, priority 2020, published 2023).

Type in all cases: in vivo, mouse
Data set [1] has as its system C57/BL6 mice. In words: Grip strength test in dexamethasone animal model of muscle loss. Conditions: Dexa + oxymetholone 10 mg/kg oral daily. As for the experimental part: (§1) Dexamethasone, a synthetic glucocorticoid, was injected subcutaneously into C57/BL6 mouse mice to establish an animal model of muscle loss and following experiment was performed.
(§2) To establish an in vivo model of muscle loss, 6 weeks-old male C57/BL6 mice (Raon Bio, 6 weeks old, weight range: 32-36 g) were acclimated for one-week, and then weighed animals determined to be healthy during the acclimatization period. The mice close to the average weight were selected using a simple random sampling method and were classified into five groups, namely, (a) a control group, (b) a muscle loss control group (treated with dexamethasone 1 mg/kg), (c) test sample group treated with inventive extract 250 mg/kg and dexamethasone, (d) test sample group treated with inventive extract 500 mg/kg and dexamethasone, and (e) positive control treated with oxymetholone (Celltrion Co. Ltd, ATC #A14AA05, 10 mg/kg) and dexamethasone.
(§3) The inventive Extract and oxymetholone were administered once to the mice daily for 4 weeks and dexamethasone was injected subcutaneously for 10 days from 10 days before the end of co-treatment of inventive extract and oxymetholone.
(§4) Both of inventive extract and oxymetholone were forcibly administered orally using zonde for oral administration after holding and fixing the skin of the animal's poll area, and dexamethasone was injected slowly subcutaneously after inserting a syringe into the dorsal skin fold of the animal held on the thumb and index finger, slightly aspirating whether it was injected normally, and confirming that no blood came out.
The grip strength of mice was determined as follows; after grabbing the animal's tail and placing it on the grid, the front foot and body were pulled at the same speed until the front foot and body were held at the grid with the front paw, and the average value was calculated after three experimental repetitions. The determination was performed on the 14th and 28th days after the administration of test sample.

Data set [2] concerns C57/BL6 mice. In words: Treadmill test in dexamethasone animal model of muscle loss. Conditions: Dexa + oxymetholone 10 mg/kg oral daily. As for the experimental part:
as §1, §2, §3, §4
The determination was performed on the 14th and 28th days after the administration of test sample.

Data set [3] relates to C57/BL6 mice. The data set can be described thus: Weight of muscle mass, epididymal fat and liver in dexamethasone animal model of muscle loss. Conditions: Dexa + oxymetholone 10 mg/kg oral daily, autopsy at 4 weeks. As for the experimental part: as §1, §2, §3, §4
The mice were anesthetized with anesthetic to prevent the movement of experimental animals and sacrificed to minimize pain to dissect them. All instruments used during the experiment were sterilized and disinfected and their liver and epididymis fat were harvested.
The gastrocnemius muscle and soleus muscle of the mice were separated, washed in saline, drained, and weighed.
After autopsy at 4 weeks after administration, the weight of liver and Epididymis fat was weighed to calculate weight-to-weight to compare the relative differences between the organ's weight in the groups.

Data set [4] can be described thus: Body weight in dexamethasone animal model of muscle loss. Conditions: Dexa + oxymetholone 10 mg/kg oral daily. As for the experimental part:
as §1, §2, §3, §4
The body weight of every animal was measured once a week for 4 weeks from the day of inventive extract administration.

In the case of `C[C@]12C/C(=C/O)C(=O)C[C@@H]1CC[C@@H]1[C@@H]2CC[C@@]2(C)[C@H]1CC[C@]2(C)O` [Oxy, oxymetholone], the results for the grip strength with C57/BL6 mice [1] (2 weeks) and in the data set with C57/BL6 mice [1] (4 weeks) were 1.00 ± 0.06 N and 1.25 ± 0.16^a N, respectively. For the same compound, the “motility (treadmill)” value in the data set with C57/BL6 mice [2] (2 weeks) was found to be 774.75 ± 66.11 meter; in the data set on C57/BL6 mice [2] (4 weeks), 773.93 ± 39.64 meter. Further, the “absolute weight, epididymal fat” value in the data set on C57/BL6 mice [3] is given as 0.43 ± 0.09^# gram. Moreover, the “absolute weight, liver” value in the data set with C57/BL6 mice [3] is given as 1.16 ± 0.07 gram. The “absolute weight, calf muscle” value with C57/BL6 mice [3] (gastrocnemius) came to 0.251 ± 0.016 gram. Moreover, the “absolute weight, fluke muscle” value with C57/BL6 mice [3] (soleus) is reported as 0.023 ± 0.002^d gram. Moreover, the body weight in data set [4] (0 week) was 22.26 ± 0.71 gram; in data set [4] (1 week) it was 22.49 ± 0.72 gram; in data set [4] (2 weeks) it was 23.25 ± 0.90 gram; in data set [4] (3 weeks), 23.22 ± 0.93 gram; in data set [4] (4 weeks), 23.20 ± 0.78^b gram.
